Molecules are shown by their SMILES.

The subject of the test is Klebsiella pneumoniae; Enterobacter aerogenes sp.; Providencia; Serratia marcescens; E. coli BE; Salmonella sp.; Shigella sp.; Proteus, indole-negative and …. In kind it is cell-based. Conditions: 100 μg/ml, Muller-Hinton nutrient broth with 0.1% glucose, 1×10^5 to 2×10^5 bacteria per ml, 24 hours; all listed cultures.

With `CC1(C)S[C@@H]2[C@H](NC(=O)[C@H](NC(=O)N3CCN(N=Cc4ccccc4)C3=O)c3ccccc3)C(=O)N2[C@H]1C(=O)O` [Example 1.3, sodium 6-{D-α-[(2-oxo-3-benzalimino-imidazolidin-1yl)-carbonylamino]phenylacetamido}-penicillanate], the “freedom from turbidity of bacterial cultures (indicates action)” value is recorded as “free from turbidity”.
The value for `CC1(C)S[C@@H]2[C@H](NC(=O)[C@H](NC(=O)N3CCN(N=Cc4ccc(Cl)cc4)C3=O)c3ccccc3)C(=O)N2[C@H]1C(=O)O` [Example 2.3, sodium 6-{D-α-[(2-oxo-3-{4-chloro}-benzalimino-imidazolidin-1-yl)-carbonylamino]-phenylacetamido}-penicillanate] was “free from turbidity”; that for `CC1(C)S[C@@H]2[C@H](NC(=O)[C@H](NC(=O)N3CCN(N=Cc4ccc(Cl)cc4)C3=O)C3=CCC=CC3)C(=O)N2[C@H]1C(=O)O` [Example 2.4, sodium 6-{D-α-[(2-oxo-3-{4-chloro}-benzalimino-imidazolidin-1-yl)-carbonylamino]-cyclohex-1,4-dien-1-yl-acetamido}-penicillanate] was “free from turbidity”; that for `CC=CC=NN1CCN(C(=O)N[C@@H](C(=O)N[C@]2(OC)C(=O)N3C(C(=O)O)=C(COC(C)=O)CS[C@@H]32)c2ccccc2)C1=O` [Example 36, 7-methoxy-7-{D-α-[(2-oxo-3-but-2-enylideneamino-imidazolidin-1-yl)-carbonylamino]-phenylacetamido}-3-acetoxymethyl-ceph-3-em-4-carboxylic acid] was “free from turbidity”.
For the compound `COC1(NC(=O)[C@H](NC(=O)N2CCN(N=Cc3ccco3)C2=O)c2ccccc2)C(=O)N2C(C(=O)O)=C(COC(C)=O)CS[C@@H]21` (some centres unmarked) [Example 36.5], the “freedom from turbidity of bacterial cultures (indicates action)” value is “free from turbidity”.

For the origin of these results see patent US4251524A (priority 1976, dated 1981).
